Source: ChEMBL document CHEMBL5050844 (2019)

Legend:
Type in all cases: functional, T cell line
[1] = Induction of anti-CD3/CD28 antibodies-stimulated human T cell activation at 1 uM assessed fold increase in CD25 expression measured by ELISA assay
[2] = Induction of anti-CD3 antibodies-stimulated human T cell activation at 1 uM assessed fold increase in IL-2 secretion measured by ELISA assay; also: reference of the scale not given here
[3] = Induction of anti-CD3 antibodies-stimulated human T cell activation at 8 uM assessed fold increase in CD25 expression measured by ELISA assay; also: reference of the scale not given here
[4] = Induction of anti-CD3/CD28 antibodies-stimulated human T cell activation at 0.3 uM assessed fold increase in CD25 expression measured by ELISA assay
[5] = Induction of anti-CD3/CD28 antibodies-stimulated human T cell activation at 4 uM assessed fold increase in IL-2 secretion measured by ELISA assay
[6] = Induction of anti-CD3 antibodies-stimulated human T cell activation at 1 uM assessed fold increase in CD25 expression measured by ELISA assay; also: reference of the scale not given here
[7] = Induction of anti-CD3/CD28 antibodies-stimulated human T cell activation at 1 uM assessed fold increase in IL-2 secretion measured by ELISA assay
[8] = Induction of anti-CD3 antibodies-stimulated human T cell activation at 8 uM assessed fold increase in IL-2 secretion measured by ELISA assay; also: reference of the scale not given here
[9] = Induction of anti-CD3/CD28 antibodies-stimulated human T cell activation at 0.3 uM assessed fold increase in IL-2 secretion measured by ELISA assay
[10] = Induction of anti-CD3/CD28 antibodies-stimulated human T cell activation at 4 uM assessed fold increase in CD25 expression measured by ELISA assay

Row | Structure (SMILES) | fold change (FC) [1] | fold change (FC) [2] | fold change (FC) [3] | fold change (FC) [4] | fold change (FC) [5] | fold change (FC) [6] | fold change (FC) [7] | fold change (FC) [8] | fold change (FC) [9] | fold change (FC) [10]
1 | C[C@H](Cc1nncn1C)c1cccc(NC(=O)c2cc(C3(O)COC3)cc(C(F)(F)F)n2)c1 | >=1.76 | <=0.05 | >=1.001 | >=1.76 | 5 | 0.601 | 1.01 | 0.101 | <=1 | >=1.76
2 | C[C@@H](c1cccc(N2Cc3c(cccc3C(F)(F)F)C2=O)c1)C(F)(F)c1nncn1C | 1.01 | <=0.05 | 0.801 | 1.01 | 2.51 | 0.601 | 1.01 | 0.101 | 1.01 | 1.01
3 | C[C@H](Cc1nncn1C)c1cccc(NC(=O)c2cc3cccn3cn2)c1 | 1.01 | 0.051 | 0.801 | 1.01 | 1.01 | 0.601 | 1.01 | 0.101 | 1.01 | 1.01
4 | Cn1cnnc1C[C@H](c1cccc(N2Cc3c(cccc3C(F)(F)F)C2=O)c1)C(F)(F)F | 1.01 | 0.051 | 0.801 | 1.01 | 1.01 | 0.601 | 1.01 | 0.101 | 1.01 | 1.01
5 | Cn1cnnc1[C@@H]1CC[C@@H]1c1cccc(N2Cc3c(cccc3C(F)(F)F)C2=O)c1 | 1.01 | 0.101 | 0.801 | 1.01 | >=7.5 | 0.601 | >=7.5 | >=0.201 | 5 | 1.01
6 | Cc1conc1C[C@@H](C)c1cccc(NC(=O)c2ccnc(C(F)(F)F)n2)c1 | 1.01 | 0.051 | >=1.001 | 1.01 | 2.51 | 0.801 | 1.01 | 0.101 | 1.01 | 1.01
7 | C[C@H](Cc1nncn1C1CC1)c1cccc(N2Cc3c(cccc3C(F)(F)F)C2=O)c1 | 1.01 | <=0.05 | 0.801 | 1.01 | 1.01 | 0.601 | 1.01 | <=0.05 | <=1 | 1.01
8 | Cc1[nH]cnc1CC(C)c1cccc(N2Cc3c(cccc3C(F)(F)F)C2=O)c1 (stereo not given) | <=1 | 0.101 | <=0.6 | <=1 | <=1 | <=0.6 | <=1 | 0.101 | <=1 | 1.01
9 | Cc1ccc(C(=O)Nc2cccc(C(C)C(F)(F)c3nncn3C)c2)nc1C1CC1 (stereo not given) | <=1 | 0.051 | >=1.001 | <=1 | 2.51 | 0.801 | 1.01 | 0.101 | 1.01 | 1.01
10 | C[C@H](Sc1nncn1C)c1ccnc(NC(=O)c2cc3c(C(F)(F)F)cccc3[nH]2)c1 | <=1 | <=0.05 | <=0.6 | <=1 | 1.01 | <=0.6 | 1.01 | <=0.05 | 1.01 | <=1
11 | C[C@H](Sc1nncn1C)c1cc(F)cc(N2Cc3c(cccc3C(F)(F)F)C2=O)c1 | 1.01 | <=0.05 | 0.801 | 1.01 | <=1 | <=0.6 | 1.01 | <=0.05 | <=1 | 1.01
12 | COc1cc(C(=O)Nc2cccc([C@H](C)Cc3nncn3C)c2)nc(C(F)(F)F)c1 | 1.01 | 0.101 | 0.801 | 1.01 | 1.01 | 0.801 | 1.01 | 0.101 | 1.01 | 1.01
13 | C[C@H](Cc1nncn1C)c1cccc(N2Cc3c(cc([C@@H]4CCCNC4)cc3C(F)(F)F)C2=O)c1 | 1.31 | 0.101 | >=1.001 | 1.01 | 5 | 0.601 | 5 | >=0.201 | 2.51 | 1.51
14 | C[C@H](Cc1nncn1C)c1cccc(NC(=O)c2cnn3cccnc23)c1 | <=1 | 0.051 | 0.601 | <=1 | 1.01 | 0.601 | 1.01 | 0.051 | 1.01 | 1.01
15 | C[C@H](Cc1nncn1C)c1cccc(NC(=O)c2cc(O[C@H]3CC[C@@H](O)C3)ccn2)c1 | 1.01 | <=0.05 | 0.801 | 1.01 | 2.51 | 0.801 | 1.01 | 0.051 | 1.01 | 1.01
16 | Cn1cnnc1[C@@H]1C[C@@H]1c1cccc(NC(=O)c2nc3c(C(F)(F)F)cccc3[nH]2)c1 | 1.01 | 0.101 | 0.801 | 1.01 | 2.51 | 0.601 | 1.01 | >=0.201 | 1.01 | 1.01
17 | C[C@H](Cc1nncn1C)c1cc(NC2CCC2)nc(N2Cc3c(cccc3C(F)(F)F)C2=O)c1 | 1.01 | <=0.05 | >=1.001 | 1.01 | 1.01 | 0.601 | 1.01 | 0.151 | 1.01 | 1.01
18 | C[C@H](Cc1nncn1C)c1cccc(NC(=O)c2cncc(C(F)(F)F)n2)c1 | >=1.76 | 0.051 | >=1.001 | >=1.76 | 5 | 0.601 | 2.51 | 0.051 | 1.01 | >=1.76
19 | C[C@@H](c1cccc(N2Cc3c(cccc3C(F)(F)F)C2=O)c1)[C@H](F)c1nncn1C (relative stereo) | 1.01 | 0.101 | 0.801 | 1.01 | 2.51 | 0.601 | 2.51 | >=0.201 | 2.51 | 1.01
20 | Cn1cnnc1C(F)(F)[C@](C)(F)c1cccc(N2Cc3c(cc(CN4CC(C#N)C4)cc3C(F)(F)F)C2=O)c1 | 1.01 | 0.051 | >=1.001 | 1.01 | 5 | 0.801 | 2.51 | 0.101 | 1.01 | 1.01
21 | C[C@H](Cc1nncn1C)c1cc(NC2CCOC2)nc(N2Cc3c(cccc3C(F)(F)F)C2=O)c1 (single isomer, unassigned) | 1.01 | 0.051 | 0.801 | <=1 | 1.01 | 0.601 | 1.01 | 0.151 | 1.01 | 1.01
22 | Cc1ncc(C(=O)Nc2cccc([C@H](C)Sc3nncn3C)c2)nc1C1CC1 | 1.31 | <=0.05 | 0.801 | 1.31 | 2.51 | 0.801 | 1.01 | 0.051 | <=1 | 1.51
